Test results published in patent publication US20250171423A1, “PHARMACEUTICAL COMPOUNDS FOR THE TREATMENT OF COMPLEMENT MEDIATED DISORDERS” (Achillion Pharmaceuticals, Inc., priority 2020, published 2025).
Structures can show the parent of a compound that is named as a salt.

Biological target: T1, Human complement C1s enzyme (Homo sapiens, UniProt P09871)
T1 construct: purified from human serum, Complement Technology, Inc; purchased Complement Technology, Inc; host or cells: human serum
T1 sequence (P09871 438-688 limits assumed): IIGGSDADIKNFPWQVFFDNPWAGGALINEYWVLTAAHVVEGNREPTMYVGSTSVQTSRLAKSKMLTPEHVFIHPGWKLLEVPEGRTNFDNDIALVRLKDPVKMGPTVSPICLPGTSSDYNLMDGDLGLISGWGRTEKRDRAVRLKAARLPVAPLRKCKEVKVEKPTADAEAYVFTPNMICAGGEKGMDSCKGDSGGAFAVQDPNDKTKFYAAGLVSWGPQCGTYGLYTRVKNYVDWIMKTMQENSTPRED
T1 sequence (P09871 16-437 partner limits assumed): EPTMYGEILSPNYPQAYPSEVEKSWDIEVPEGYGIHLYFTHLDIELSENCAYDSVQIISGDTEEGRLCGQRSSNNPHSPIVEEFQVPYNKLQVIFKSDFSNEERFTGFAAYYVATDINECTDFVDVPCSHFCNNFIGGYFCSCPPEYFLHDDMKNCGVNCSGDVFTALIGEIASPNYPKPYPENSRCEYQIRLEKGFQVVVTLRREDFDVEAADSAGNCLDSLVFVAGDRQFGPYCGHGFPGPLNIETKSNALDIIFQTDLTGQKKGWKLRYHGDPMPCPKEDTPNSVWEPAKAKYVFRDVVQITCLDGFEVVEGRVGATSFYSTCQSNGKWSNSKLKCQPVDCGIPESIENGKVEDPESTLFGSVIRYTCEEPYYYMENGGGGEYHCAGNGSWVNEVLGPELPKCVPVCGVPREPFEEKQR
Experiment: Human C1s Enzyme Assay
Format: biochemical
Conditions: human C1s 1.16 nM, 5 min preincubation, substrate Z-L-Lys-SBzl 100 μM, A405; read-out: C1s Protease Activity
Procedure: The assay of Example 3 was used to determine the IC50's of the compounds. Other standard complement assays are also available.
Example 3. Human C1s Enzyme Assay
Human complement C1s enzyme (purified from human serum, Complement Technology, Inc.) at 1.16 nM final concentration was incubated with test compound at various concentrations for 5 min at room temperature in 50 mM Tris, 1 M NaCl, pH 7.5. A synthetic substrate Z-L-Lys-SBzl and DTNB (Ellman's reagent) were added to final concentrations of 100 μM each. Absorbance at 405 nm (A405) was recorded at 30 second intervals for 30 min using a microplate spectrophotometer. IC50 values were calculated by nonlinear regression of complement C1s reaction rates as a function of test compound concentration.

| SMILES | IC50 [µM] |
| --- | --- |
| N=C(N)c1csc([C@@H](NC(=O)[C@@H]2C[C@@H](OC(F)F)CN2C(=O)CNC(=O)c2ccc(Oc3ccccc3)cc2)C(N)=O)c1 (relative stereo) [Compound 214, (2S,4R)-N-((S*)-2-amino-1-(4-carbamimidoylthiophen-2-yl)-2-oxoethyl)-4-(difluoromethoxy)-1-((4-phenoxybenzoyl)glycyl)pyrrolidine-2-carboxamide] | > 1 |
| COC[C@H]1C[C@@H](C(=O)N[C@H](C)c2cc(C(=N)N)cs2)N(C(=O)CNC(=O)c2ccc(Oc3ccccc3)cc2)C1 (relative stereo) [Compound 252, (2S,4S*)-N-((R)-1-(4-carbamimidoylthiophen-2-yl)ethyl)-4-(methoxymethyl)-1-((4-phenoxybenzoyl)glycyl)pyrrolidine-2-carboxamide] | < 0.1 |
| C[C@H](NC(=O)[C@@H]1C[C@]2(C)C[C@@H]2N1C(=O)CNC(=O)c1ccc(Oc2ccccc2)cc1)c1cc(C(=N)N)cs1 (single isomer, unassigned) [Compound 47, (1S,3S,5S)-N-((S*)-1-(4-carbamimidoylthiophen-2-yl)ethyl)-5-methyl-2-((4-phenoxy-benzoyl)glycyl)-2-azabicyclo[3.1.0]hexane-3-carboxamide] | < 0.1 |
| C[C@@H](NC(=O)[C@@H]1C[C@]2(C)C[C@@H]2N1C(=O)CNC(=O)c1ccc(Oc2ccccc2)cc1)c1cc(C(=N)N)cs1 (single isomer, unassigned) [Compound 49, (1S,3S,5S)-N-((R*)-1-(4-carbamimidoylthiophen-2-yl)ethyl)-5-methyl-2-((4-phenoxy-benzoyl)glycyl)-2-azabicyclo[3.1.0]hexane-3-carboxamide] | 0.1 to 1 |
| N=C(N)c1csc([C@H](NC(=O)[C@@H]2C[C@@H](OC(F)F)CN2C(=O)CNC(=O)c2ccc(Oc3ccccc3)cc2)C(N)=O)c1 (single isomer, unassigned) [Compound 215] | > 1 |
| CC(C)C(NC(=O)[C@@H]1C[C@@H](OC(F)F)CN1C(=O)CNC(=O)c1ccc(Oc2ccccc2)cc1)c1cc(C(=N)N)cs1 (stereo in doubt) [Compound 188, (2S,4R)-N-((S)-1-(4-carbamimidoylthiophen-2-yl)-2-methylpropyl)-4-(difluoromethoxy)-1-((4-phenoxybenzoyl)glycyl)pyrrolidine-2-carboxamide] | > 1 |
| N=C(N)c1csc(CNC(=O)[C@@H]2CC(c3nccs3)CN2C(=O)CNC(=O)c2ccc(Oc3ccccc3)cc2)c1 (stereo in doubt) [Compound 209, (2S,4R)-N-((4-carbamimidoylthiophen-2-yl)methyl)-1-((4-phenoxybenzoyl)glycyl)-4-(thiazol-2-yl)pyrrolidine-2-carboxamide] | < 0.1 |
| N=C(N)c1csc(CNC(=O)[C@@H]2CC(OC(F)(F)F)CN2C(=O)CNC(=O)c2ccc(Oc3ccccc3)cc2)c1 (stereo in doubt) [Compound 247, (2S,4S)-N-((4-carbamimidoylthiophen-2-yl)methyl)-1-((4-phenoxybenzoyl)glycyl)-4-(trifluoromethoxy)pyrrolidine-2-carboxamide] | < 0.1 |
| N=C(N)c1csc(CNC(=O)[C@@H]2CC(=C(F)F)CN2C(=O)CNC(=O)c2ccc(Oc3ccccc3)cc2)c1 [Compound 1, (S)-N-((4-carbamimidoylthiophen-2-yl)methyl)-4-(difluoromethylene)-1-((4-phenoxybenzoyl)glycyl)pyrrolidine-2-carboxamide] | < 0.1 |
| C[C@@]12C[C@@H]1N(C(=O)CNC(=O)c1ccc(Oc3ccccc3)cc1)[C@H](C(=O)NCc1nc(C(=N)N)cs1)C2 [Compound 2, (1S,3S,5S)-N-((4-carbamimidoylthiazol-2-yl)methyl)-5-methyl-2-((4-phenoxy-benzoyl)glycyl)-2-azabicyclo[3.1.0]hexane-3-carboxamide] | < 0.1 |
| C[C@@]12C[C@@H]1N(C(=O)CNC(=O)c1ccc(Oc3ccc(S(C)(=N)=O)cc3)cc1)[C@H](C(=O)NCc1cc(C(=N)N)cs1)C2 (stereo partly drawn) [Compound 3, (1S,3S,5S)-N-((4-carbamimidoylthiophen-2-yl)methyl)-5-methyl-2-((4-(4-(S-methyl-sulfonimidoyl)phenoxy)benzoyl)glycyl)-2-azabicyclo[3.1.0]hexane-3-carboxamide] | < 0.1 |
| C[C@@]12C[C@@H]1N(C(=O)CNC(=O)c1ccc(Oc3ccccc3)cc1)[C@H](C(=O)NCc1ccc(C(=N)N)cn1)C2 [Compound 4] | 0.1 to 1 |
| C[C@@]12C[C@@H]1N(C(=O)CNC(=O)c1ccc(Oc3ccccc3)cc1)[C@H](C(=O)NCc1ccc(N)nc1)C2 [Compound 5] | 0.1 to 1 |
| CO/N=C(\N)c1csc(CNC(=O)[C@@H]2C[C@]3(C)C[C@@H]3N2C(=O)CNC(=O)c2ccc(Oc3ccccc3)cc2)c1 [Compound 6, (1S,3S,5S)-N-((4-((Z)-N′-methoxycarbamimidoyl)thiophen-2-yl)methyl)-5-methyl-2-((4-phenoxybenzoyl)glycyl)-2-azabicyclo[3.1.0]hexane-3-carboxamide] | > 1 |
| N=C(N)c1csc(CNC(=O)[C@@H]2CCC(=O)N2C(=O)CNC(=O)c2ccc(Oc3ccccc3)cc2)c1 [Compound 7, (S)-N-((4-carbamimidoylthiophen-2-yl)methyl)-5-oxo-1-((4-phenoxybenzoyl)glycyl)-pyrrolidine-2-carboxamide] | < 0.1 |
| C[C@@]12C[C@@H]1N(C(=O)CNC(=O)c1ccc(Oc3ccccc3)cc1)[C@H](C(=O)NCc1cc(C(N)=O)cs1)C2 [Compound 8, (1S,3S,5S)-N-((4-carbamoylthiophen-2-yl)methyl)-5-methyl-2-((4-phenoxybenzoyl)-glycyl)-2-azabicyclo[3.1.0]hexane-3-carboxamide] | > 1 |
| N=C(N)c1csc(CNC(=O)[C@@H]2C[C@]3(CO)C[C@@H]3N2C(=O)CNC(=O)c2ccc(Oc3ccccc3)cc2)c1 [Compound 9, (1S,3S,5R)-N-((4-carbamimidoylthiophen-2-yl)methyl)-5-(hydroxymethyl)-2-((4-phenoxybenzoyl)glycyl)-2-azabicyclo[3.1.0]hexane-3-carboxamide] | < 0.1 |
| CC(=O)NCc1cc(C(=O)NCC(=O)N2[C@H]3C[C@@]3(C)C[C@H]2C(=O)NCc2cc(C(=N)N)cs2)ccc1Oc1ccccc1 [Compound 10] | < 0.1 |
| C[C@@]12C[C@@H]1N(C(=O)CNC(=O)c1ccc(Oc3ccccc3)cc1)[C@H](C(=O)NCc1cc(/C(N)=N/[N+](=O)[O-])cs1)C2 [Compound 11, (1S,3S,5S)-5-methyl-N-((4-((Z)-N′-nitrocarbamimidoyl)thiophen-2-yl)methyl)-2-((4-phenoxybenzoyl)glycyl)-2-azabicyclo[3.1.0]hexane-3-carboxamide] | > 1 |
| CCCCCCOC(=O)/N=C(\N)c1csc(CNC(=O)[C@@H]2C[C@]3(C)C[C@@H]3N2C(=O)CNC(=O)c2ccc(Oc3ccccc3)cc2)c1 [Compound 12, hexyl ((Z)-amino(5-(((1S,3S,5S)-5-methyl-2-((4-phenoxybenzoyl)glycyl)-2-azabicyclo-[3.1.0]hexane-3-carboxamido)methyl)thiophen-3-yl)methylene)carbamate] | > 1 |
| C[C@@]12C[C@@H]1N(C(=O)CNC(=O)c1ccc(Oc3ccccc3)cc1)[C@H](C(=O)NCc1cc(/C(N)=N/S(C)(=O)=O)cs1)C2 [Compound 13, (1S,3S,5S)-5-methyl-N-((4-((Z)-N′-(methylsulfonyl)carbamimidoyl)thiophen-2-yl)-methyl)-2-((4-phenoxybenzoyl)glycyl)-2-azabicyclo[3.1.0]hexane-3-carboxamide] | > 1 |
| COC[C@H]1C[C@@H](C(=O)NCc2cc(C(=N)N)cs2)N(C(=O)CNC(=O)c2ccc(Oc3ccccc3)cc2)C1 [Compound 14, (2S,4S)-N-((4-carbamimidoylthiophen-2-yl)methyl)-4-(methoxymethyl)-1-((4-phenoxybenzoyl)glycyl)pyrrolidine-2-carboxamide hydrochloride] | < 0.1 |
| N=C(N)c1csc(CNC(=O)[C@@H]2C[C@H](c3ccccc3)CN2C(=O)CNC(=O)c2ccc(Oc3ccccc3)cc2)c1 [Compound 15, (2S,4R)-N-((4-carbamimidoylthiophen-2-yl)methyl)-1-((4-phenoxybenzoyl)glycyl)-4-phenylpyrrolidine-2-carboxamide] | 0.1 to 1 |
| N=C(N)c1csc(CNC(=O)C23CCC(CC2)N3C(=O)CNC(=O)c2ccc(Oc3ccccc3)cc2)c1 [Compound 16, N-((4-carbamimidoylthiophen-2-yl)methyl)-7-((4-phenoxybenzoyl)glycyl)-7-azabicyclo[2.2.1]heptane-1-carboxamide] | 0.1 to 1 |
